Biological target: T1, A2AR (hADORA2A-HEK293 cells) (Homo sapiens, UniProt P29274)
T1 construct: expressed in transfected cells; host or cells: HEK293 (hADORA2A-HEK293)
Test: functional cAMP production assay: NECA stimulation of cAMP production and its inhibition by A2AR antagonists
Type: cell-based
Conditions: A2AR-expressing HEK293 cells (hADORA2A-HEK293); NECA at EC80; TR-FRET cAMP readout; read-out: A2AR Potency (IC50, inhibition of NECA-stimulated cAMP production)
Description: The antagonistic activities of the triazolotriazine derivatives of the present invention were measured in a functional cAMP production assay. The assay consists of NECA stimulation of cAMP production and its inhibition by A2AR antagonists in A2AR-expressing HEK293 cells (hADORA2A-HEK293). All cells were cultured in complete medium at 37° C. in 5% CO2. The cells were detached with pancreatin and collected at 200 g for 5 min. After resuspending the cells in fresh complete medium, the cell viability is counted using the trypan blue exclusion method. […] After the cells were diluted with Hank's buffered saline solution containing HEPES (5 mM), BSA stabilizer (0.1%) and […] Rolipram (10 μM), cells were loaded into white opaque 384-well plates (˜500 cells/well, 10 μl/well) and incubated with test compound at a suitable concentration range (11 concentrations) for 20 min at room temperature. Then the A2A receptor agonist NECA (final concentration=EC80, which was determined in the same experiment slightly earlier) was added to the sample and the mixture was incubated again for 30 min at 37° C. […] The inhibition rate (%) was calculated according to the following formula. The IC50 values were calculated from concentration-inhibition (%) curves after log transformation.

T1 sequence (P29274 whole entry): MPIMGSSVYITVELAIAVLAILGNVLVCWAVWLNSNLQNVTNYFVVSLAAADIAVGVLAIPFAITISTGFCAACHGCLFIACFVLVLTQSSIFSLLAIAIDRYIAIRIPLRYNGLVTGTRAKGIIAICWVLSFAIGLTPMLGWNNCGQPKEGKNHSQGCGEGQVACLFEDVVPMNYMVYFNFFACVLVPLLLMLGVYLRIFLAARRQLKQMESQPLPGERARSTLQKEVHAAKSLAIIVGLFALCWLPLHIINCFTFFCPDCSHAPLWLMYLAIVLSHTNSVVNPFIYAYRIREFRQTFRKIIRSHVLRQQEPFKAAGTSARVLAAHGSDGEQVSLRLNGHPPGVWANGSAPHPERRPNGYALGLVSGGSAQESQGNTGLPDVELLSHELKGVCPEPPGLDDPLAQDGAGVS

Row | Structure (SMILES) | IC50 [nM]
1 | CN(C)[C@H]1CCN(CCOc2ccc(CCNc3nc(N)n4nc(-c5ccco5)nc4n3)cc2)C1 [Example 154, (S)-N5-(4-(2-(3-(Dimethylamino)pyrrolidin-1-yl)ethoxy)phenethyl)-2-(furan-2-yl)-[1,2,4]triazolo[1,5-a][1,3,5]triazine-5,7-diamine] | 25.3
2 | CN(C)C1CN(CCOc2ccc(CCNc3nc(N)n4nc(-c5ccco5)nc4n3)cc2)C1 [Example 162, N5-(4-(2-(3-(Dimethylamino)azetidin-1-yl)ethoxy)phenethyl)-2-(furan-2-yl)-[1,2,4]triazolo[1,5-a][1,3,5]triazine-5,7-diamine] | 17.5
3 | Nc1nc(NCCc2ccc(OCC(F)(F)F)cc2)nc2nc(-c3ccco3)nn12 [Example 207, N5-(4-(2,2,2-Trifluoroethoxy)phenethyl)-2-(furan-2-yl)-[1,2,4]triazolo[1,5-a][1,3,5]triazine-5,7-diamine] | 8.96
4 | CN(C)[C@@H]1CCN(CCOc2ccc(CCNc3nc(N)n4nc(-c5ccco5)nc4n3)cc2)C1 [Example 214, N5-((R)-4-(2-(3-(Dimethylamino)pyrrolidin-1-yl)ethoxy)phenethyl)-2-(furan-2-yl)-[1,2,4]triazolo[1,5-a][1,3,5]triazine-5,7-diamine] | 35.2
5 | Nc1nc(NCCc2ccc(NC(=O)CCN3CCCC3)cc2)nc2nc(-c3ccco3)nn12 [Example 226, N-(4-(2-((7-Amino-2-(furan-2-yl)-[1,2,4]triazolo[1,5-a][1,3,5]triazin-5-yl)amino)ethyl)-phenyl)-3-(pyrrolidin-1-yl)propanamide] | 20
6 | CN1CCN(CCC(=O)Nc2ccc(CCNc3nc(N)n4nc(-c5ccco5)nc4n3)cc2)CC1 [Example 229, N-(4-(2-((7-Amino-2-(furan-2-yl)-[1,2,4]triazolo[1,5-a][1,3,5]triazin-5-yl)amino)ethyl)-phenyl)-3-(4-methylpiperazin-1-yl)propanamide] | 25.3
7 | CN1CCC(C(=O)Nc2ccc(CCNc3nc(N)n4nc(-c5ccco5)nc4n3)cc2)CC1 [Example 241, N-(4-(2-((7-Amino-2-(furan-2-yl)-[1,2,4]triazolo[1,5-a][1,3,5]triazin-5-yl)amino)ethyl)-phenyl)-1-methylpiperidine-4-carboxamide] | 11.2
8 | Nc1nc(NCCc2ccc(OCCOCCF)cc2)nc2nc(-c3ccco3)nn12 [Example 245, N5-(4-(2-(2-Fluoroethoxy)ethoxy)phenethyl)-2-(furan-2-yl)-[1,2,4]triazolo[1,5-a][1,3,5]triazine-5,7-diamine] | 10.1
9 | CN(C)CCNc1ccc(CCNc2nc(N)n3nc(-c4ccco4)nc3n2)cc1 [Example 254, N5-(4-((2-(Dimethylamino)ethyl)amino)phenethyl)-2-(furan-2-yl)-[1,2,4]triazolo[1,5-a][1,3,5]triazine-5,7-diamine] | 19.6
10 | Nc1nc(NCCc2ccc(NC(=O)Cc3ccncc3)cc2)nc2nc(-c3ccco3)nn12 [Example 276, N-(4-(2-((7-Amino-2-(furan-2-yl)-[1,2,4]triazolo[1,5-a][1,3,5]triazin-5-yl)amino)ethyl)-phenyl)-2-(pyridin-4-yl)acetamide] | 17.5
11 | CN(CCOc1ccc(CCNc2nc(N)n3nc(-c4ccco4)nc3n2)cc1)Cc1cccnc1 [Example 284, 2-(Furan-2-yl)-N5-(4-(2-(methyl(pyridin-3-ylmethyl)amino)ethoxy)phenethyl)-[1,2,4]triazolo[1,5-a][1,3,5]triazine-5,7-diamine] | 32.3
12 | CN1CCCN(CCOc2ccc(CCNc3nc(N)n4nc(-c5ccco5)nc4n3)cc2)CC1 [Example 286, 2-(Furan-2-yl)-N5-(4-(2-(4-methyl-1,4-diazepan-1-yl)ethoxy)phenethyl)-[1,2,4]triazolo[1,5-a][1,3,5]triazine-5,7-diamine] | 33
13 | Nc1nc(NCCc2ccccn2)nc2nc(-c3ccco3)nn12 [Example 302, 2-(Furan-2-yl)-N5-(2-(pyridin-2-yl)ethyl)-[1,2,4]triazolo[1,5-a][1,3,5]triazine-5,7-diamine] | 12.7
14 | CN(C)Cc1ccc(CCNc2nc(N)n3nc(-c4ccco4)nc3n2)cc1 [Example 306, N5-(4-((Dimethylamino)methyl)phenethyl)-2-(furan-2-yl)-[1,2,4]triazolo[1,5-a][1,3,5]triazine-5,7-diamine] | 163
15 | Nc1nc(NCCc2ccc(OCCN3CC[C@@H](F)C3)cc2)nc2nc(-c3ccco3)nn12 [Example 309, (R)-N5-(4-(2-(3-Fluoropyrrolidin-1-yl)ethoxy)phenethyl)-2-(furan-2-yl)-[1,2,4]triazolo[1,5-a][1,3,5]triazine-5,7-diamine] | 30.4
16 | Nc1nc(NCCc2ccc(NC(=O)CCN3CCC3)cc2)nc2nc(-c3ccco3)nn12 [Example 313, N-(4-(2-((7-Amino-2-(furan-2-yl)-[1,2,4]triazolo[1,5-a][1,3,5]triazin-5-yl)amino)ethyl)-phenyl)-3-(azetidin-1-yl)propanamide] | 13.8
17 | Nc1nc(NCCc2ccc(OCCOCC(F)(F)F)cc2)nc2nc(-c3ccco3)nn12 [Example 314, 2-(Furan-2-yl)-N5-(4-(2-(2,2,2-trifluoroethoxy)ethoxy)phenethyl)-[1,2,4]triazolo[1,5-a][1,3,5]triazine-5,7-diamine] | 15.4
18 | Nc1nc(NCCc2ccc(NCCN3CCOCC3)cc2)nc2nc(-c3ccco3)nn12 [Example 318, 2-(Furan-2-yl)-N5-(4-((2-morpholinoethyl)amino)phenethyl)-[1,2,4]triazolo[1,5-a][1,3,5]triazine-5,7-diamine] | 11.1
19 | Nc1nc(NCCc2ccc(NC(=O)CN3CCOCC3)cc2)nc2nc(-c3ccco3)nn12 [Example 320, N-(4-(2-((7-Amino-2-(furan-2-yl)-[1,2,4]triazolo[1,5-a][1,3,5]triazin-5-yl)amino)ethyl)-phenyl)-2-morpholinoacetamide] | 11.5
20 | CN1CCN(CC(=O)Nc2ccc(CCNc3nc(N)n4nc(-c5ccco5)nc4n3)cc2)CC1 [Example 321, N-(4-(2-((7-Amino-2-(furan-2-yl)-[1,2,4]triazolo[1,5-a][1,3,5]triazin-5-yl)amino)ethyl)-phenyl)-2-(4-methylpiperazin-1-yl)acetamide] | 40.7
21 | CC(C)(C)C(=O)Nc1ccc(CCNc2nc(N)n3nc(-c4ccco4)nc3n2)cc1 [Example 324, N-(4-(2-((7-Amino-2-(furan-2-yl)-[1,2,4]triazolo[1,5-a][1,3,5]triazin-5-yl)amino)ethyl)-phenyl)pivalamide] | 10.8
22 | CC(C)(CO)C(=O)Nc1ccc(CCNc2nc(N)n3nc(-c4ccco4)nc3n2)cc1 [Example 325, N-(4-(2-((7-Amino-2-(furan-2-yl)-[1,2,4]triazolo[1,5-a][1,3,5]triazin-5-yl)amino)ethyl)-phenyl)-3-hydroxy-2,2-dimethylpropanamide] | 11.9
23 | CC(C)(O)C(=O)Nc1ccc(CCNc2nc(N)n3nc(-c4ccco4)nc3n2)cc1 [Example 326, N-(4-(2-((7-Amino-2-(furan-2-yl)-[1,2,4]triazolo[1,5-a][1,3,5]triazin-5-yl)amino)ethyl)-phenyl)-2-hydroxy-2-methylpropanamide] | 10.7
